In publication PMC10614388, “Genoprotective potential of Macaranga species phytochemical compounds on HT-29 human colorectal adenocarcinoma cell line” (Genes and Environment, 2023):
“Also recorded” adds a separate entry of the source. Where two headings read alike, the source gives them in different places.

Assays:
[1] = tested on: HT-29 human colorectal adenocarcinoma cell line; experiment: Sulforhodamine B (SRB) cytotoxicity assay; assay type: cell-based; details: HT-29 cells, 48 h treatment
Method: (§1) HT-29 (HTB-38™) cells were grown in McCoy’s 5a Modified Medium (Sigma-Aldrich, St. Louis, MO, USA) while CCD-18Co (CRL-1459™) cells were grown in Eagle’s Minimum Essential Medium (EMEM; Thermo Fisher Scientific, Waltham, MA, USA). Both culture media were supplemented with 10% foetal bovine serum (FBS; Thermo Fisher Scientific, Waltham, MA, USA) and penicillin-streptomycin antibiotic (Thermo Fisher Scientific, Waltham, MA, USA). Non-essential amino acids (NEAA; Thermo Fisher Scientific, Waltham, MA, USA) were added to the completed EMEM media. Cells were maintained at 37 °C in a 5% CO2 incubator. Cells were detached via trypsinization (0.025% trypsin) after reaching confluency and were ready to be used for tests.
(§2) Sulforhodamine B (SRB) assay was used to assess the cytotoxicity of the compounds [17]. Briefly, HT-29 and CCD-18Co cells were seeded in 96-well-plate at 1.5 × 10^5 cells/ml respectively and were incubated at 37 °C in 5% CO2 for 24 h. 100 µl of six concentrations of serially diluted compounds (0.94–30 µg/ml) were added in their respective wells. Hydrogen peroxide (10 mM) was used as the positive control. The plate was incubated for 48 h. Cells were fixed with 50 µl of 50% cold (4 °C) trichloroacetic Acid (TCA) and incubated at 4 °C for 1 h. The plates were washed five times with tap water and air-dried before staining with 100 µL of 0.4% (w/v) SRB staining solution (Sigma-Aldrich, St. Louis, MO, USA). Further incubation was done for 30 min at room temperature. Subsequently, the plates were washed three times with 1% (v/v) acetic acid to remove any unbound stains. After air-dried, 200 µL of 10 mM trizma base were added into each well and agitated for 15 min. Absorbance was read with a microplate reader with Microplate Manager® Software at the wavelength of 564 nm. All experiments were carried out in triplicates.

HT-29 cells [2] = details: human, 21.2 µM
Method: (§3) Alkaline Comet Assay was used to assess strand breaks in DNA indicative of DNA damage. The experiment was carried out according to previous study by Tan et al.. […] Cells were also treated with hydrogen peroxide (H2O2) (as positive control, 1.0 mM) for 30 min. […] Following respective incubations, detached cells in the media were collected, added to trypsinize cells and centrifuged (2500 rpm/5 min). The supernatant was removed, and the pellet was washed with Ca^2+−/Mg^2+-free PBS before re-centrifugation. Pellets left at the bottom were mixed thoroughly with 80 µl of 0.6% low melting agarose (LMA) (w/v) and the mixture was pipetted onto hardened 0.6% normal melting agarose (NMA) (w/v) on the slide. Coverslips were placed to spread the mixture and the slides were left on ice for LMA to solidify. Following the removal of the coverslips, the embedded cells were lysed in lysis buffer containing 2.5 M NaCl, 100 mM Na2EDTA, 10 mM Tris, and 1% Triton X-100 for 1 h at 4 °C. Slides were soaked in electrophoresis buffer solution for 20 min at 4 °C for DNA-unwinding before electrophoresis at 300 mA, 25 V, for 20 min. Subsequently, the slides were rinsed with neutralizing buffer for 5 min and stained with […] ethidium bromide solution. Slides were analysed using Leitz Laborlux epifluorescence microscope equipped with 515 barrier filter and 560 emission filter. Fifty cells per slide were scored and the tail moment (TM) and % tail DNA (TD) were analyzed with COMET assay III (Perceptive Instruments, UK).

[3] = tested on: CCD-18Co human normal colon cell line; experiment: Sulforhodamine B (SRB) cytotoxicity assay; assay type: cell-based; details: CCD-18Co cells, 48 h treatment
Method: as §1, §2

HT-29 cells [4] = experiment: Annexin V-FITC/PI apoptosis assay (flow cytometry); assay type: cell-based, human
Method: The mode of cell death was determined using the Annexin V-FITC/PI apoptosis assay. Cells were treated with IC50 value of the selected compound and apoptosis assessment were done at 4 h, 24 and 48 h respectively. 100µM of menadione was used as a positive control with an enriched media act as a negative control. The measurement of apoptosis is based on phosphatidylserine (PS) exposure as described previously. Briefly, cells were collected and resuspended in […] annexin V buffer containing […] FITC-conjugated annexin V and incubated for 15 min in the dark. Propidium iodide ([…] of 50 mg/ml stock in PBS) was then added and samples were subjected to flow cytometric analysis using FACS CANTO II (BD Biosciences, San Jose, CA, USA).

HT-29 cells [5] = experiment: Reactive oxygen species by dihydroethidine (HE) staining (flow cytometry); assay type: cell-based, human
Method: The generation of superoxide anion was determined as described previously. […] Cells were then centrifuged at 220 g for 5 min and resuspended in 1 ml PBS. Flow cytometry was performed using FACS CANTO II (BD Bioscience).

[6] = tested on: murine leukemia P-388 cells; design: method as in earlier work; details: Tanjung et al. (2017); cited from earlier work
[7] = design: method as in doi:10.1016/j.phytol.2019.02.002; details: cited from earlier work
HT-29 cells [8] = experiment: Alkaline Comet assay, protection against menadione-induced genotoxicity
Method: as §3

[9] = pre-treated with Laevifolin A at IC50 for 20 h, followed by 4-hour menadione (100 µM)
[10] = menadione 100 µM, 4-hour incubation

CC(C)=CCc1cc(CCc2c(CC=C(C)C)c(O)cc(O)c2CC=C(C)C)ccc1O [Malayheyneiin A]
IC50 [1]: no IC50 values were obtained

CC(C)=CCc1c(CCc2c(CC=C(C)C)c(O)cc(O)c2CC=C(C)C)ccc(O)c1O [Laevifolin A]
Level of DNA damage, % tail DNA (HT-29 cells [2]; 30 min): 6.4 ± 1.6%
Level of DNA damage, Tail moment (HT-29 cells [2]; 30 min): 0.53 ± 0.1 Arbitrary unit
Level of DNA damage, % tail DNA (HT-29 cells [2]; 1 h): 6.0 ± 0.6%
Level of DNA damage, Tail moment (HT-29 cells [2]; 1 h): 0.45 ± 0.03 Arbitrary unit
Level of DNA damage, % tail DNA (HT-29 cells [2]; 4 h): 4.3 ± 1.2%
Level of DNA damage, Tail moment (HT-29 cells [2]; 4 h): 0.31 ± 0.1 Arbitrary unit
Level of DNA damage, % tail DNA (HT-29 cells [2]; 24 h): 7.8 ± 0.7%
Level of DNA damage, Tail moment (HT-29 cells [2]; 24 h): 0.69 ± 0.1 Arbitrary unit
IC50 [3]: 59.5 µM
IC50 ([1]; Homo sapiens, read-out: IC50): 21.2 µM
induction of apoptotic cells (HT-29 cells [4]; Laevifolin A at IC50 (21.2 µM), 4 h, 24 and 48 h, compared to negative control): no induction of apoptosis; also recorded: no significant induction of apoptotic cells; also recorded: did not induce apoptosis
percentage of cells with HE uptake (generation of ROS) (HT-29 cells [5]; Laevifolin A at IC50 (21.2 µM), compared with negative control): no significant increase; also recorded: no significant increase or decrease of ROS
IC50 [6]: 4.3 ± 0.6 µM
antioxidant properties, DPPH radical scavenging activity [7]: possesses antioxidant properties
Level of DNA damage, % tail DNA (HT-29 cells [8]; [9]): 1.24 ± 0.1%
Level of DNA damage, Tail moment (HT-29 cells [8]; [9]): 9.8 ± 0.9 Arbitrary unit

CC1=CC(=O)c2ccccc2C1=O [Menadione, reference compound]
induction of apoptotic cells (HT-29 cells [4]; positive control at 100 µM): significant (p < 0.05) increase of apoptotic cells
percentage of cells with HE uptake (generation of ROS) (HT-29 cells [5]; menadione at 100 µM, positive control): 22.6 ± 1.0%
Level of DNA damage, % tail DNA (HT-29 cells [8]; [10]): *23.4 ± 3.1%
Level of DNA damage, Tail moment (HT-29 cells [8]; [10]): *7.00 ± 0.8 Arbitrary unit

CC(C)=CCc1cc(CCc2c(CC=C(C)C)c(O)cc(O)c2CC=C(C)C)cc(O)c1O [Laevifolin B]
IC50 [1]: no IC50 values were obtained
IC50 [6]: 12.3 ± 0.6 µM
